Measurements taken from ChEMBL document CHEMBL1123908, “Endoperoxides as potential antimalarial agents” (J Med Chem, 1987).

Experiments:
Type in all cases: functional, organism-based
Mus musculus [1] = assay: Blood schizonticidal activity against Plasmodium berghei in mice (Mus musculus) at the dose of 160 mg/kg; Inactive; design: dose 160 mg/kg
Mus musculus [2] = assay: Blood schizonticidal activity against Plasmodium berghei in mice (Mus musculus) at the dose of 640 mg/kg; Inactive; design: dose 640 mg/kg
Mus musculus [3] = assay: Blood schizonticidal activity against Plasmodium berghei in mice (Mus musculus) at the dose of 40 mg/kg; Inactive; design: dose 40 mg/kg

CC12CCC(OC(=O)c3ccccc3)C(C)(C)C13CCC(C2)OO3 (configuration not stated)
Not Active: Activity call (Mus musculus [1]) | Activity (active/inactive) (Mus musculus [2]) | Blood schizonticidal activity (Mus musculus [3])

CCCCOC(=O)OC1CCC2(C)CC3CCC2(OO3)C1(C)C (configuration not stated)
Not Active: Activity call (Mus musculus [1]) | Activity (active/inactive) (Mus musculus [2]) | Blood schizonticidal activity (Mus musculus [3])

CC(=O)OC1CCC2(C)CC3C=C[C@]2(OO3)C1(C)C (some centres not stated)
Not Active: Activity call (Mus musculus [1]) | Activity (active/inactive) (Mus musculus [2]) | Blood schizonticidal activity (Mus musculus [3])

CC12CCC(O)C(C)(C)C13CCC(C2)OO3 (configuration not stated)
Not Active: Activity call (Mus musculus [1]) | Activity (active/inactive) (Mus musculus [2]) | Blood schizonticidal activity (Mus musculus [3])

CC12CCC(OC(=O)c3ccccc3)C(C)(C)[C@@]13C=CC(C2)OO3 (some centres not stated)
Not Active: Activity call (Mus musculus [1]) | Activity (active/inactive) (Mus musculus [2]) | Blood schizonticidal activity (Mus musculus [3])

CC(C)CCCC(C)[C@H]1CC[C@H]2C3CC=C4C[C@@H](OC(=O)OC5CCC6(C)CC7C=CC6(OO7)C5(C)C)CCC4(C)[C@H]3CCC12C (some centres not stated)
Not Active: Activity call (Mus musculus [1]) | Activity (active/inactive) (Mus musculus [2]) | Blood schizonticidal activity (Mus musculus [3])

CC12CCC(O)C(C)(C)[C@@]13C=CC(C2)OO3 (some centres not stated)
Not Active: Activity call (Mus musculus [1]) | Activity (active/inactive) (Mus musculus [2]) | Blood schizonticidal activity (Mus musculus [3])

CC(=O)OC(C)CCC12OO[C@@H](C=C1C)CC2(C)C (some centres not stated)
Not Active: Activity call (Mus musculus [1]) | Activity (active/inactive) (Mus musculus [2]) | Blood schizonticidal activity (Mus musculus [3])

CC(=O)OC1CCC2(C)CC3CCC2(OO3)C1(C)C (configuration not stated)
Not Active: Activity call (Mus musculus [1]) | Activity (active/inactive) (Mus musculus [2]) | Blood schizonticidal activity (Mus musculus [3])
